Paper PMC2151622 (The Journal of General Physiology, 2007)

Target: T1, WT-EAAC1 (Oryctolagus cuniculus, UniProt P31597)
T1 sequence (P31597 1-524): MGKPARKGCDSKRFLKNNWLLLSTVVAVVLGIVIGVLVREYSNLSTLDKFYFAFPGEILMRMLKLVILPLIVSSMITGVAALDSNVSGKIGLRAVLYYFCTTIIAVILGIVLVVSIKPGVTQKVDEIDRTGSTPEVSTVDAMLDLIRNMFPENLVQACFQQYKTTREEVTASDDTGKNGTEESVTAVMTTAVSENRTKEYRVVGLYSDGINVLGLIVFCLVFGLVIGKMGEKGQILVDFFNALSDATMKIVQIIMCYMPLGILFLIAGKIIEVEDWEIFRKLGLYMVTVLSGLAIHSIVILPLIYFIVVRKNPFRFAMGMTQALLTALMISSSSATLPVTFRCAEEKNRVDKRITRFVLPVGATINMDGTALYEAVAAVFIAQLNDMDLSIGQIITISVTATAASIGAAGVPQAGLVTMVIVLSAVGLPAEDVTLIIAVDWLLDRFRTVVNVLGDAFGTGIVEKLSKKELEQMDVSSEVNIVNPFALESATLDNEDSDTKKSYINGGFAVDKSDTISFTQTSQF
Assay type: cell-based, rabbit
Details: WT-EAAC1 in HeLa cells; 5 mM unlabeled succinate

O=C(O)CCC(=O)O [Succinate, succinate]
Inhibition of D-[3H]-aspartate uptake: In contrast to WT
